Measurements taken from ChEMBL document CHEMBL4819085, “Dipyridyl-substituted thiosemicarbazone as a potent broad-spectrum inhibitor of metallo-β-lactamases” (Bioorg Med Chem, 2021).
Converted amounts (≈) assume the structure as drawn. The source made the active and inactive calls. The calls are words filed in the database; no cut-off is given here.

Tests used:
Escherichia coli [1] = test: Antibacterial activity against Escherichia coli 04 assessed as reduction in bacterial growth incubated for 24 hrs by broth microdilution method; assay type: functional
Escherichia coli [2] = test: Antibacterial activity against Escherichia coli 08 assessed as reduction in bacterial growth incubated for 24 hrs by broth microdilution method; assay type: functional
Pseudomonas aeruginosa = test: Antibacterial activity against Carbapenem-resistant Pseudomonas aeruginosa assessed as reduction in bacterial growth incubated for 24 hrs by broth microdilution method; assay type: functional
Escherichia coli [3] = test: Antibacterial activity against Escherichia coli 06 assessed as reduction in bacterial growth incubated for 24 hrs by broth microdilution method; assay type: functional
Escherichia coli [4] = test: Antibacterial activity against Escherichia coli 24 assessed as reduction in bacterial growth incubated for 24 hrs by broth microdilution method; assay type: functional
Escherichia coli [5] = test: Antibacterial activity against Escherichia coli 01 assessed as reduction in bacterial growth incubated for 24 hrs by broth microdilution method; assay type: functional
Enterococcus faecium = test: Antibacterial activity against vancomycin-resistant Enterococcus faecium assessed as reduction in bacterial growth incubated for 24 hrs by broth microdilution method; assay type: functional
Klebsiella pneumoniae [6] = test: Antibacterial activity against Klebsiella pneumoniae assessed as reduction in bacterial growth incubated for 24 hrs by broth microdilution method; assay type: functional
Staphylococcus aureus = test: Antibacterial activity against methicillin-resistant Staphylococcus aureus assessed as reduction in bacterial growth incubated for 24 hrs by broth microdilution method; assay type: functional
Klebsiella pneumoniae [7] = test: In vivo antibacterial activity against Klebsiella pneumoniae producing NDM-1 infected in mouse assessed as reduction in bacterial load in spleen at 10 mg/kg, ip; assay type: functional, organism-based
Bacteria = test: Inhibition of bacterial NDM-1 expressed in Escherichia coli BL21 (DE3) at 20 uM using meropenem as substrate incubated for 1 hr by spectrometry analysis relative to control
[8] = biological target: Metallo-beta-lactamase (Escherichia coli) (UniProt Q5U7L7); test: Inhibition of Escherichia coli VIM-2 assessed as reduction in bacterial growth incubated for 24 hrs by broth microdilution method
Escherichia coli [9] = test: Inhibition of Escherichia coli IMP-1 assessed as reduction in bacterial growth incubated for 24 hrs by broth microdilution method
Escherichia coli [10] = test: Inhibition of Escherichia coli NDM-1 assessed as reduction in bacterial growth incubated for 24 hrs by broth microdilution method
Escherichia coli [11] = test: Inhibition of Escherichia coli L1 assessed as reduction in bacterial growth incubated for 24 hrs by broth microdilution method
Klebsiella pneumoniae [12] = test: In vivo antibacterial activity against Klebsiella pneumoniae producing NDM-1 infected in mouse assessed as reduction in bacterial load in liver at 10 mg/kg, ip; assay type: functional, organism-based
Escherichia coli [13] = test: Inhibition of Escherichia coli ImiS assessed as reduction in bacterial growth incubated for 24 hrs by broth microdilution method
[14] = Inhibition of bacterial L1 using meropenem as substrate incubated for 1 hr by spectrometry analysis; design: species or system Bacteria
[15] = Inhibition of bacterial VIM-2 expressed in Escherichia coli BL21 (DE3) using meropenem as substrate incubated for 1 hr by spectrometry analysis; design: species or system Bacteria
[16] = Inhibition of bacterial IMP-1 using meropenem as substrate incubated for 1 hr by spectrometry analysis; design: species or system Bacteria
[17] = Inhibition of bacterial ImiS expressed in Escherichia coli BL21 (DE3) using meropenem as substrate incubated for 1 hr by spectrometry analysis; design: species or system Bacteria
[18] = Inhibition of bacterial NDM-1 expressed in Escherichia coli BL21 (DE3) using meropenem as substrate incubated for 1 hr by spectrometry analysis; design: species or system Bacteria

SMILES | MIC (Escherichia coli [1]) | MIC (Escherichia coli [2]) | MIC (Pseudomonas aeruginosa) | MIC (Escherichia coli [3]) | MIC (Escherichia coli [4]) | MIC (Escherichia coli [5]) | MIC (Enterococcus faecium) | MIC (Klebsiella pneumoniae [6]) | MIC (Staphylococcus aureus) | other results
CO/N=C(\C(=O)N[C@@H]1C(=O)N2C(C(=O)O)=C(COC(C)=O)CS[C@H]12)c1csc(N)n1 [CEFOTAXIME] | > 16000 µg/mL | 8190 µg/mL (≈ 18 mM) | > 16000 µg/mL | 8190 µg/mL (≈ 18 mM) | 16000 µg/mL (≈ 35.1 mM) | 16000 µg/mL (≈ 35.1 mM) | 4100 µg/mL (≈ 8.99 mM) | 16000 µg/mL (≈ 35.1 mM) | 1020 µg/mL (≈ 2.25 mM) | 
Cc1nnc(SCC2=C(C(=O)O)N3C(=O)[C@@H](NC(=O)Cn4cnnn4)[C@H]3SC2)s1 [CEFAZOLIN] | 4100 µg/mL (≈ 9.01 mM) | 4100 µg/mL (≈ 9.01 mM) | > 16000 µg/mL | 4100 µg/mL (≈ 9.01 mM) | 4100 µg/mL (≈ 9.01 mM) | 16000 µg/mL (≈ 35.2 mM) | 8130 µg/mL (≈ 17.9 mM) | 4100 µg/mL (≈ 9.01 mM) | 4100 µg/mL (≈ 9.01 mM) | 
C[C@@H](O)[C@H]1C(=O)N2C(C(=O)O)=C(S[C@@H]3CN[C@H](C(=O)N(C)C)C3)[C@H](C)[C@H]12 [MEROPENEM] | 64 µg/mL (≈ 0.167 mM) | 128 µg/mL (≈ 0.334 mM) | 8 µg/mL (≈ 0.0209 mM) | 128 µg/mL (≈ 0.334 mM) | 128 µg/mL (≈ 0.334 mM) | 128 µg/mL (≈ 0.334 mM) | 256 µg/mL (≈ 0.668 mM) | 256 µg/mL (≈ 0.668 mM) | 64 µg/mL (≈ 0.167 mM) | inhibition (Klebsiella pneumoniae [7]): Active; inhibition (Bacteria): > 90%; MIC [8]: 64 µg/mL (≈ 0.167 mM); MIC (Escherichia coli [9]): 32 µg/mL (≈ 0.0834 mM); MIC (Escherichia coli [10]): 128 µg/mL (≈ 0.334 mM); MIC (Escherichia coli [11]): 128 µg/mL (≈ 0.334 mM); inhibition (Klebsiella pneumoniae [12]): Active; MIC (Escherichia coli [13]): 64 µg/mL (≈ 0.167 mM)
O=C(O)C(=O)CBr [BROMOPYRUVATE] |  |  |  |  |  |  |  |  |  | IC50 [14]: > 40 µM; IC50 [15]: 18.7 µM; IC50 [16]: 28.9 µM; IC50 [17]: > 40 µM; IC50 [18]: 2.57 µM
CC1(C)S[C@@H]2[C@H](NC(=O)[C@H](N)c3ccccc3)C(=O)N2[C@H]1C(=O)O [AMPICILLIN] | > 16000 µg/mL | > 16000 µg/mL | > 16000 µg/mL | 8190 µg/mL (≈ 23.4 mM) | 16000 µg/mL (≈ 45.8 mM) | > 16000 µg/mL | > 16000 µg/mL | 8190 µg/mL (≈ 23.4 mM) | > 16000 µg/mL | 
CO/N=C(\C(=O)N[C@@H]1C(=O)N2C(C(=O)O)=C(CSc3nc(=O)c(O)nn3C)CS[C@H]12)c1csc(N)n1 [CEFTRIAXONE] | 16000 µg/mL (≈ 28.9 mM) | 16000 µg/mL (≈ 28.9 mM) | 64 µg/mL (≈ 0.115 mM) | 16000 µg/mL (≈ 28.9 mM) | 16000 µg/mL (≈ 28.9 mM) | 16000 µg/mL (≈ 28.9 mM) | 512 µg/mL (≈ 0.923 mM) | 8190 µg/mL (≈ 14.8 mM) | 4100 µg/mL (≈ 7.39 mM) | 
